Entries after “also recorded” stand apart in the source; their conditions may differ.
Experiments:
runx1/cmyb+ AGM HSCs [1] = details: for effect on AGM HSCs in zebrafish embryos (in words): exposure from three somites to 36 hpf, runx1/cmyb staining
Procedure: A chemical genetic screen was conducted to identify novel pathways that modulate definitive HSC formation during zebrafish embryogenesis. FIG. 1. Genes such as runx1 and cmyb, required for HSC development during mammalian hematopoiesis, are expressed in the ventral wall of the dorsal aorta in a region analogous to the mammalian AGM at thirty-six hours post-fertilization (hpf). […] Wild-type embryos were incubated with individual compounds from the three-somite stage until thirty-six hpf. Probes for runx1 and cmyb were combined and utilized to detect HSCs by in situ hybridization.
Wild-type age-matched embryos were arrayed into 48-well plates (˜5 embryos/well) of individual test compounds and exposed from 3-somites until 36 hpf. […] In situ hybridization for runx1 and cmyb was performed to assess HSCs. Compounds were retested at 10 μM, 20 μM, and 50 μM. Stem cell specificity was assessed using flk1 at 36 hpf. PGE2, PGI2, dmPGE2 and all cox inhibitors (Sigma) were used at 10 μM to 20 μM.
Qualitative scoring (# embryos with altered HSCs/# scored) of runx1/cmyb was conducted using the following criteria: Normal/unchanged=continuous line of runx1/cmyb+ endothelial cells and occasional hematopoietic clusters. Decreased/absent=reduction in runx1/cmyb+ cells, including the presence of large gaps in the line of HSCs, isolated positive cells, or absence of expression. Increased/excess=enhancement in runx1/cmyb^+ cells, including many HSC clusters, a thickened line of HSCs, or ectopic expression.

vasculature (flk1) = details: zebrafish, in vivo, 10 μM
Procedure: Wild-type age-matched embryos were arrayed into 48-well plates (˜5 embryos/well) of individual test compounds and exposed from 3-somites until 36 hpf. Three compound libraries were utilized: NINDS Custom Collection (1040), SpecPlus Collection (960) and BIOMOL ICCB Known Bioactives (480). […] In situ hybridization for runx1 and cmyb was performed to assess HSCs. Compounds were retested at 10 μM, 20 μM, and 50 μM. Stem cell specificity was assessed using flk1 at 36 hpf. PGE2, PGI2, dmPGE2 and all cox inhibitors (Sigma) were used at 10 μM to 20 μM.

cmyb/lmo2+ HSCs = assay: Confocal quantification of HSCs in cmyb:GFP x lmo2:dsRed bigenic embryos; type: in vivo, zebrafish; details: 36 hpf live embryos
Procedure: A long-acting derivative, 16,16-dimethyl-PGE2 (dmPGE2, 10 μM) caused an increase in runx1/cmyb+ AGM HSCs in 78% of embryos examined (97/124). AGM HSCs were inhibited by indomethacin (10 μM) treatment in 90% of embryos analyzed (92/102). […] Transgenic cmyb:GFP zebrafish with green fluorescent HSCs and myeloid progenitor cells were crossed to lmo2:dsRed fish that have red fluorescent endothelial cells and HSCs to visualize the effects of chemical exposure in vivo. […] FIG. 3.
Live 36 hpf treated bigenic zebrafish embryos were embedded in 1% low-melting point agarose containing 0.4 mg/ml Tricaine-S for confocal imaging. cmyb-GFP transgenic reporter lines were created from a BAC containing the cmyb promoter genomic sequence (Galloway, Zhu, Lin, Zon, unpublished); lmo2:DsRed fish were created as described^27. For HSC quantification, cmyb/lmo2+ positive cells were counted in projections of z-stack images (n=10/treatment).

runx1, cmyb expression = assay: qPCR of HSC gene expression in treated zebrafish embryos; type: in vivo
PGE2 formation = assay: HPLC-tandem mass spectrometry of PGE2 in zebrafish embryos; type: in vivo; details: 36 hpf embryos, n=3; untreated 18+/−6
Procedure: PGE2 and the stable PGI2 metabolite, 6-keto-PGF1α, were measured using HPLC-tandem mass spectrometry. Ethylacetate extracts from homogenized embryos were spiked with the corresponding stable isotope labeled internal standards (d4-PGE2 and d4-6-keto PGF1α) and allowed to react with methoxylamine. The following mass transitions were monitored: m/z 384→272 (PGE), m/z 398→368 (6-keto PGF1α and TxB2).

mouse ES cells = assay: ES cell hematopoietic differentiation assays (M3434 methylcellulose and OP9 colony assays); type: cell-based; details: indomethacin 20 μM (OP9) and 100 μM (GM)
Procedure: ES cell hematopoietic differentiation assays were performed as previously described. […] M3434 methylcellulose colony forming and OP9 colony assays were conducted on day 6 and analyzed at […], respectively. Colony type was identified by morphological analysis; duplicate chemical exposures were averaged to determine the reported colony number (n=3 replicates minimum).

[2] = system: CFU-S from murine bone marrow cells; assay: Murine colony-forming units-spleen (CFU-S); type: in vivo, mouse
Procedure: Two independent BM samples were treated (n=5/treatment×2 replicates) for each variable. Recipient mice were lethally irradiated with a split dose of 10 Gy. 6×10^4 unfractionated dmPGE2 or control-treated BM cells were injected retro-orbitally into irradiated recipient mice. Spleens were dissected on day eight or twelve, weighed and fixed with Bouin's solution; hematopoietic colonies per spleen were counted. 1×10^5 cells/recipient were transplanted after treatment with the cox inhibitors. FACS sorted ckit^+sca1^+lineage^− BM cells were treated as above and transplanted at a dose of either 100 cells/recipient or 300 cells/recipient.

wnt activity [3] = assay: wnt reporter TOP:dGFP zebrafish embryos; type: in vivo; details: vs control
Excerpt: Clinical experience in patients with APC mutations has shown that inhibition of prostaglandin synthesis results in decreased wnt mediated polyp formation. […] These interactions were examined in vivo using a wnt reporter zebrafish transgenic line, TOP:dGFP. At fifty-percent epiboly, embryos were subjected either to nothing (control), indomethacin, or PGE2, and the amount of wnt signaling activated in the embryo assessed by GFP induction driven from the wnt binding site. Analysis of alterations in GFP expression in the head was analyzed by in situ hybridization. […] FIG. 12.

runx1/cmyb+ AGM HSCs [4] = assay: Heat shock wnt-pathway transgenic embryos treated with PG drugs: AGM HSC formation; type: in vivo, zebrafish; details: hs:wnt8 embryos heat shocked at five somites
Procedure: More specifically, Wnt signaling through its main transcriptional mediator β-catenin plays an important role in controlling tissue patterning, cell fate decisions, and proliferation in many embryonic contexts, including the development and differentiation of organs. […] Whether wnt signaling has a role during HSC formation in zebrafish was determined using heat shock inducible activators and repressors of the wnt pathway. Briefly, wnt-inducible embryos were harvested and heat shocked for twenty minutes at 38° C. Genotypes were sorted by GFP expression, and the AGM HSCs analyzed by runx1/cmyb expression in situ. […] This is the first evidence in any organism that wnt signaling is required for AGM HSC formation.
Additionally, indomethacin and dmPGE2 was used to investigate the interaction of the wnt and prostaglandin pathways during HSC development and in marrow recovery following injury. FIG. 13 reflects the potential points of interaction of the PG and wnt pathways. […] Furthermore, dmPGE2 can rescue the inhibitory effects of dkk activation on AGM HSC formation at 36 hpf, as shown by in situ hybridization for runx1/cmyb.

wnt activity [5] = assay: wnt activity in kidney marrow of irradiated Top:dGFP adults; type: in vivo, zebrafish; details: day three post irradiation
Procedure: (§1) To determine if prostaglandin pathway manipulation can alter wnt activity in the kidney marrow repopulation in the adult, the effects of dmPGE2 and indomethacan was examined further in Top:dGFP lines. […] FIG. 14. To discern whether modulation of prostaglandin signaling can modify the wnt mediated effects on kidney marrow recovery following irradiation, wnt genes were activated by heat shock at 38° C. at two days post irradiation and then. exposure to prostaglandin pathway drugs at one day post heat shock. The hs:wnt8-GFP fish were exposed to indomethacin, while the dkk1, axin, and dnTCF transgenic fish were exposed to dmPGE2. Whole kidney marrow was analyzed by FACS on day ten post-irradiation.

[6] = system: kidney marrow precursor cell population; assay: Kidney marrow recovery after irradiation in heat shock wnt transgenic adults treated with PG drugs; type: in vivo, zebrafish; details: hs:wnt8-GFP adults, day ten post-irradiation
Procedure: An irradiation recovery assay was also employed to investigate the role of wnt signaling in hematopoietic homeostasis in zebrafish. Transgenic fish expressing wnt-related genes were sublethally irradiated and heat shock gene induction was initiated by overnight incubation at 38° C. on day two post-irradiation. Kidney marrow was harvested at various timepoints post-irradiation as outlined previously for the prostaglandin experiments. FIG. 11. […] Inhibition of wnt signaling, by heat shock dkk or dnTCF, drastically alters the kinetics of marrow recovery and can result in the complete failure of marrow regeneration and lethality.
as §1

embryonic hematopoiesis = assay: RA / DEAB treatment of wild-type and kgg zebrafish embryos; type: in vivo
[7] = system: ES cell-derived embryoid bodies; assay: Hematopoietic colonies from ES cell-derived embryoid bodies treated with DEAB or RA; type: cell-based, mouse; details: added to EBs between days two to three
Excerpt: DEAB and RA also affected the formation of mouse hematopoietic progenitors arising from ES cell-derived embryoid bodies (EBs). […] See also Davidson et al., 425 Nature 300-06 (2003); Davidson & Zon, 292(2) Devel. Biol. 506-18 (2006).

wnt activity [8] = assay: wnt activity in the AGM of TOP:gal mice; details: mouse, in vivo

`COc1ccc2c(c1)c(CC(=O)O)c(C)n2C(=O)c1ccc(Cl)cc1` [Indomethacin] was tested, and the “embryos with AGM HSCs inhibited” value (runx1/cmyb+ AGM HSCs [1]; 10 μM) was 90%, the “decreased runx1/cmyb+ HSCs (# embryos altered/# scored)” value (runx1/cmyb+ AGM HSCs [1]; 10 μM, 36 hpf) was 92/102 and the “effect on AGM HSCs in zebrafish embryos (in words)” value (runx1/cmyb+ AGM HSCs [1]) was “reduced stem cells in the aorta”. The “embryos with slightly altered intersomitic vessels” value (vasculature (flk1)) was 30%, the “embryos with slightly altered intersomitic vessels (# altered/# examined)” value (vasculature (flk1)) was 15/49 and the “HSC numbers along the floor of the aorta by confocal microscopy (in words)” value (cmyb/lmo2+ HSCs) was “significantly decreased numbers of HSCs”. The “cmyb expression by qPCR (in words)” value (runx1, cmyb expression; 10 μM) was “significant alterations”, the “runx1 expression by qPCR, reduction” value (runx1, cmyb expression; indomethacin 10 μM) was 50% and the “PGE2 formation after treatment” value (PGE2 formation) was under 2 pg/50 embryos. For the same compound, the colony growth (mouse ES cells) was “inhibited colony growth”, the “number of CFU-S12, decrease” value ([2]; WBM ex vivo 1 μM/10^6 cells, 1×10^5 cells transplanted) was 70% and the “CFU-S12 Colony Number” value ([2]; Whole Marrow, 100000 cells transplanted, 1 μM/10^6 cells ex vivo, EtOH 8.8 (2.1)) was 2.5 (1.4). For the same compound, the “wnt activity (GFP expression) in TOP:dGFP embryos” value (shortened to “wnt activity (GFP expression)”) (wnt activity [3]; listed as indo) was “virtual absence of wnt activity”, the “wnt activity (GFP expression)” value (wnt activity [3]; listed as indomethacin) was “severely reduced GFP expression” and the “effect on wnt8-mediated enhancement of runx1/cmyb expression / HSC induction” value (runx1/cmyb+ AGM HSCs [4]; listed as indo) was “reversed”. The “effect on wnt8-mediated enhancement of runx1/cmyb expression / HSC induction” value (runx1/cmyb+ AGM HSCs [4]; listed as indomethacin) was “can be blocked”, the “wnt activity (GFP) in kidney marrow of Top:dGFP adults” value (wnt activity [5]) was “inhibited GFP expression” and the “effect on wnt-mediated enhancement of the kidney marrow precursor cell population” value ([6]; listed as Indo) was “blocked”. For the same compound, the “effect on wnt-mediated enhancement of the kidney marrow precursor cell population” value ([6]; listed as indomethacin) was “severely diminish”.

For `CCN(CC)c1ccc(C=O)cc1` [DEAB], the “erythroid cells in wild-type embryos” value (embryonic hematopoiesis) was “induced an expansion of erythroid cells”, the “expression of hoxa9a in kgg embryos” value (embryonic hematopoiesis) was “failed to rescue” and the “hematopoiesis in kgg mutants” value (embryonic hematopoiesis) was “restored hematopoiesis”. For the same compound, the “increase in 'primitive' erythroid colonies (CFU-Ep)” value [7] was “five-eight fold”.

For `CCCCC[C@H](O)/C=C/[C@H]1[C@H](O)CC(=O)[C@@H]1C/C=C\CCCC(=O)O` [PGE2, prostaglandin E2], the “increased runx1/cmyb expression (# embryos altered/# scored)” value (runx1/cmyb+ AGM HSCs [1]; 20 μM, 36 hpf) was 25/49, the “effect on AGM HSCs in zebrafish embryos (in words)” value (runx1/cmyb+ AGM HSCs [1]) was “stronger expression of runx1/cmyb than PGI2; also recorded: increase moderately” and the “wnt activity (GFP expression)” value (wnt activity [3]) was “markedly enhanced wnt activity”. The “wnt activity in the AGM of TOP:gal mice” value (wnt activity [8]) was “induced wnt activity”.

— patent US10272110B2, “Methods for promoting HSC engraftment” (CHILDREN'S MEDICAL CENTER CORPORATION, priority 2006, dated 2019)
